Test results: PMC3360681, “Comparison of Recombinant Human Haptocorrin Expressed in Human Embryonic Kidney Cells and Native Haptocorrin” (PLoS ONE, 2012)

T1: rhHC (recombinant human haptocorrin) (Homo sapiens, UniProt P20061)
T1 construct: Myc-His-tag (Myc + 6xHis, from pcDNA4/myc-His A) (C, cleaved yes); made in house
T1 sequence (P20061 24-433): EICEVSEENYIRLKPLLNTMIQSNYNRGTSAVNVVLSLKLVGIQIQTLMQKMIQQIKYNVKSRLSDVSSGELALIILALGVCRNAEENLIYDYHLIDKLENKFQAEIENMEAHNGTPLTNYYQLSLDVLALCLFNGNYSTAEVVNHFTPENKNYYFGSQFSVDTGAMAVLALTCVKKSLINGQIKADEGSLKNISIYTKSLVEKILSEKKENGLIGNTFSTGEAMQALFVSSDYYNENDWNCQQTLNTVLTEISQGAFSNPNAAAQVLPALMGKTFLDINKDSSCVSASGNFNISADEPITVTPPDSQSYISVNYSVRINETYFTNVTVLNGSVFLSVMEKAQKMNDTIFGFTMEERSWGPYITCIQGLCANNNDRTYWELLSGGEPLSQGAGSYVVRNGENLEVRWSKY

T2: TC (transcobalamin) (Homo sapiens, UniProt P20062)
T2 sequence (P20062 19-427): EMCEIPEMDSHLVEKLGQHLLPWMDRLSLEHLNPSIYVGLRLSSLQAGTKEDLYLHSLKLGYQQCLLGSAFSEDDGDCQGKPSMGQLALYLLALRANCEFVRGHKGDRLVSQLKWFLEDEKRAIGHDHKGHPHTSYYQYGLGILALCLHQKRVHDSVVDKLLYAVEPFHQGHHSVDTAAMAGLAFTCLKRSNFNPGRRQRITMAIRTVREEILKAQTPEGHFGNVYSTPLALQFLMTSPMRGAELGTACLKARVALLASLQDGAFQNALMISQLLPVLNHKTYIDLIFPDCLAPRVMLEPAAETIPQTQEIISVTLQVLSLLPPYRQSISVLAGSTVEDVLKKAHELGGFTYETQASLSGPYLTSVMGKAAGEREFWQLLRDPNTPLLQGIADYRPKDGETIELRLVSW


Key:
[1] = target: T1, rhHC (recombinant human haptocorrin); experiment: Binding and dissociation kinetics with fluorescent Cbl-conjugate CBC (stopped-flow competition and chase experiments); settings: pH 7.5
Experimental: A more detailed examination of the binding kinetics was performed in a competitive assay, where the fluorescent ligand CBC [32] alone or in the mixture with a test ligand (Cbl or Cbi) reacted with rhHC over time. Attachment of CBC to Cbl-binding proteins causes increase in the quantum yield of the fluorophore, which facilitates monitoring of the protein - CBC interactions, [33]. Presence of a non-fluorescent ligand X decreases the signal, because the binding goes along two competing routes HC•CBC ← HC → HC·X (reactions behave as irreversible processes within 0.2 s). The binding and dissociation rate constants k +s and k−s, as well as the equilibrium dissociation constant KD were calculated for all ligands by computer fitting as explained elsewhere and the results are listed in Table 2. Compared to previously reported values for native HC, all current binding rate constants (k +s) were 2–3 fold lower. This difference could not be explained by possible concentration error (±10%, examined by simulations).
The dissociation kinetics was examined in chase experiments which obeyed (within the examined time scale) one of the below schemes: HC·CBC → HC → HC·X or HC·X → HC → HC·CBC (first step was rate limiting). The dissociation kinetics of the ligands CBC, Cbl and Cbi was measured after formation of the corresponding complexes with rhHC, followed by addition of external CBC (or Cbl in the case of CBC itself) (Figure 5B). The dissociation rate constants were then calculated from linear slopes (Table 2). […] It should be understood, that evaluation of rate constants below 3 · 10^−6 s^−1 within the examined time scale cannot be precise, and that the records were used for comparison of different ligands rather than for precise quantification of k −s.
[…] The binding kinetics was monitored by means of stopped flow method (DX.17 MV stopped-flow spectro-fluorometer, Applied Biophysics, UK) using the fluorescent response from a Cbl-conjugate CBC [32], [33], excitation 525 nm, emission >550 nm, slit 1.5 mm, voltage 390, bandpass of 18.6 nm, light path of 1 cm. […] The relevant rate constants of association were calculated by computer fitting, as described elsewhere, [33].
The dissociation reactions were monitored on fluorometer Varian Eclipse (Varian, Australia) using the fluorescent response of CBC, excitation 525 nm (slit 5 nm), emission 550 nm (slit 5 nm), photomultiplier 600 V. In one setup the pre-formed rhHC·CBC complex (1 µM, 2 min) was mixed with free Cbl (1 µM), and decrease in fluorescence was registered due to rhHC·CBC ↔ Cbl exchange. Dissociation of the non-fluorescent ligands (Cbl or Cbi) was measured in similar chase experiments. […] The endogenous ligand dissociated from the protein (rate limiting step), whereupon CBC immediately bound to rhHC and increased fluorescence.

[2] = tested on: native HC (native human haptocorrin); design: method as in PMID 17487979; settings: 20°C, cited from earlier work; for k−s dissociation rate constant: pH 7.5, measured over a period of 100 h; for k+s binding rate constant: pH 7.5
TC (transcobalamin) = target: T2, TC (transcobalamin); experiment: Concurrent binding kinetics test with CBC and Cbl; settings: data not shown
IF (intrinsic factor) = IF (intrinsic factor) (Homo sapiens, UniProt P27352); experiment: Concurrent binding kinetics test with CBC and Cbl; settings: data not shown
Chain of IF (intrinsic factor) (P27352 19-417, species assumed): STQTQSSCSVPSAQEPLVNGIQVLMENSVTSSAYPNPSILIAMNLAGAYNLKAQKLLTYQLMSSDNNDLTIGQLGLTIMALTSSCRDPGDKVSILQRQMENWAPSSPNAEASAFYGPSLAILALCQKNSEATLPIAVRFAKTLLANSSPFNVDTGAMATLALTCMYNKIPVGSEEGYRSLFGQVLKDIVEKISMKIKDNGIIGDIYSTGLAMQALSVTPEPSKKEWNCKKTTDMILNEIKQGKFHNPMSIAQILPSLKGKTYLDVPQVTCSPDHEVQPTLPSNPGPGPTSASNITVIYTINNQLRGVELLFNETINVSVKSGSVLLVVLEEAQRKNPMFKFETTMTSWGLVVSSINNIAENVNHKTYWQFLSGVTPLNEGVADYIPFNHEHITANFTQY

[3] = tested on: HepG2 cells expressing the asialoglycoprotein receptor; experiment: Internalisation of 125I-labelled proteins into HepG2 cells; format: cell-based; settings: 125I-labelled protein
Source text: Depending on the source of expression, different isoforms of HC exist in human blood and extracellular fluids. […] We tested whether ^125I-labelled rhHC would be readily taken up by HepG2 cells expressing the asialoglycoprotein receptor involved in HC clearance. […] Only after removal of terminal sialic acid by neuraminidase, rhHC and native HC were internalised. Removal of the terminal sialic acid residues was qualitatively determined by SDS/PAGE (Figure 6A).
The proteins were labelled with ^125I using the Iodogen method (Pierce). Labelled protein was purified on a PD10 column (GE healthcare, Glattbrugg, Switzerland). HEPG2 cells were incubated in twelve-well plates in triplicates with about 1 µg of labelled protein for 1 h at 4°C. The plates were then incubated for 0, 1.5, 3, 6 h at 37°C for internalisation. After these times, the cells were washed twice with PBS/0.1% bovine serum albumin and then incubated for 5 min with ice-cold acid wash buffer (50 mM Glycine-HCl, 100 mM NaCl, pH 2.8) to remove the cell-surface bound radioligand. Subsequently, cells were solubilised by incubation with 1 N NaOH for 5 min. at 37°C. At each time point the radioactivity in the cell medium (released), the acid wash (cell-surface bound) and the solubilised cells (internalised) were determined with a NaI-γ-counter (Cobra II Packard, Canberra Packard GmbH, Frankfurt, Germany).

[4] = Active protein fraction (AP) from absorbance ratio A280/A356 after saturation with aquo-Cbl; format: binding
Source text: The spectral features of the complex rhHC•aquo-Cbl were explored further when rhHC was saturated with aquo-Cbl added in steps at concentrations below the total binding capacity of the protein (Figure 3B). This allowed calculation of the molar absorbance coefficients of aquo-Cbl when bound to rhHC (Table 1). These parameters helped to evaluate the active protein fraction (AP) as previously shown for IF [27]. For rhHC the value of AP was found from the ratio of R = A280/A356 according to the equation below and the values of absorbance coefficients from Table 1. [drawing 1]
Prior to AP measurements, rhHC was saturated with an excess of aquo-Cbl, free aquo-Cbl was bound to the specific tetrazole adsorbent, whereupon the spectrum of rhHC·Cbl was recorded and compared to the control sample (buffer + aquo-Cbl + adsorbent). After subtraction of the control spectrum, the absorbance ratio and AP were calculated.
rhHC (10 µM) was saturated with an excess of CNCbl (20 µM) and subjected to dialysis against a 50-fold volume excess of 5 M GdnHCl (30°C, 180 rpm). The solution was changed at days 2 and 3. Incubation was stopped after day 4, whereupon rhHC was renatured by dialysis against 0.2 M Na-phosphate buffer pH 7.5, see also ref. [31].

[5] = rhHC preparation with active protein fraction 0.95
[6] = after removal of terminal sialic acid by neuraminidase
[7] = without neuraminidase treatment, time span of 6 h

k−s dissociation rate constant [1, 5]	k+s binding rate constant (TC (transcobalamin))	k+s binding rate constant (IF (intrinsic factor))	Cbl binding capacity ([4]; rhHC)	Molecule	k+s binding rate constant [1, 5]	k+s binding rate constant ([1]; rhHC preparation with active protein fraction 0.99)	k−s dissociation rate constant [2]	k+s binding rate constant [2] [M⁻¹ s⁻¹]	Internalisation into HepG2 cells [3, 6]	Internalisation into HepG2 cells [3, 7]	AP active protein fraction after renaturing ([4]; apo-rhHC after Cbl saturation, GdnHCl dialysis and renaturing, preparation with AP = 0.95 before treatment)
				CC1=C2[N-][C@H]([C@H](CC(N)=O)[C@@]2(C)CCC(=O)NC[C@@H](C)O)[C@]2(C)N=C(C(C)=C3N=C(C=C4N=C1[C@@H](CCC(N)=O)C4(C)C)[C@@H](CCC(N)=O)[C@]3(C)CC(N)=O)[C@@H](CCC(N)=O)[C@]2(C)CC(N)=O.[Co+2] [Cbi, cobinamide]	21 10^6 M^−1s^−1	33 10^6 M^−1s^−1	≈5 · 10^−7 s^−1	7.3e+07			
X/≤3/X· 10^−6 10^−6 s^−1	60–70 · 10^6 M^−1 s^−1	60–70 · 10^6 M^−1 s^−1		C/C1=C2/[N-][C@H]([C@H](CC(N)=O)[C@@]2(C)CCC(=O)NC[C@@H](C)OP(=O)([O-])O[C@H]2[C@@H](O)[C@@H](n3cnc4cc(C)c(C)cc43)O[C@@H]2CO)[C@]2(C)N=C(/C(C)=C3N=C(/C=C4N=C1[C@@H](CCC(N)=O)C\4(C)C)[C@@H](CCC(N)=O)[C@]\3(C)CC(N)=O)[C@@H](CCC(N)=O)[C@]2(C)CC(N)=O.[Co] [Cbl, cobalamin]	X/19/X· 10^6 10^6 M^−1s^−1		≈5 · 10^−7 s^−1	9e+07			
				native HC: native human haptocorrin purified from plasma of a patient with hepatocellular carcinoma (protein, 125I label (Iodogen method); glycosylated, native human haptocorrin purified from plasma of a patient with hepatocellular carcinoma) EICEVSEENYIRLKPLLNTMIQSNYNRGTSAVNVVLSLKLVGIQIQTLMQKMIQQIKYNVKSRLSDVSSGELALIILALGVCRNAEENLIYDYHLIDKLENKFQAEIENMEAHNGTPLTNYYQLSLDVLALCLFNGNYSTAEVVNHFTPENKNYYFGSQFSVDTGAMAVLALTCVKKSLINGQIKADEGSLKNISIYTKSLVEKILSEKKENGLIGNTFSTGEAMQALFVSSDYYNENDWNCQQTLNTVLTEISQGAFSNPNAAAQVLPALMGKTFLDINKDSSCVSASGNFNISADEPITVTPPDSQSYISVNYSVRINETYFTNVTVLNGSVFLSVMEKAQKMNDTIFGFTMEERSWGPYITCIQGLCANNNDRTYWELLSGGEPLSQGAGSYVVRNGENLEVRWSKY					internalised	not internalised	
			95–99%	rhHC: recombinant human haptocorrin expressed in HEK293 cells, tag removed, four excessive C-terminal residues (…LVPR) (protein, 125I label (Iodogen method); glycosylated, highly sialylated; left off: Myc, C-terminal, cleaved | His6, C-terminal, cleaved) EICEVSEENYIRLKPLLNTMIQSNYNRGTSAVNVVLSLKLVGIQIQTLMQKMIQQIKYNVKSRLSDVSSGELALIILALGVCRNAEENLIYDYHLIDKLENKFQAEIENMEAHNGTPLTNYYQLSLDVLALCLFNGNYSTAEVVNHFTPENKNYYFGSQFSVDTGAMAVLALTCVKKSLINGQIKADEGSLKNISIYTKSLVEKILSEKKENGLIGNTFSTGEAMQALFVSSDYYNENDWNCQQTLNTVLTEISQGAFSNPNAAAQVLPALMGKTFLDINKDSSCVSASGNFNISADEPITVTPPDSQSYISVNYSVRINETYFTNVTVLNGSVFLSVMEKAQKMNDTIFGFTMEERSWGPYITCIQGLCANNNDRTYWELLSGGEPLSQGAGSYVVRNGENLEVRWSKYLVPR					internalised	not internalised	0.95
